In patent US12465648B2, “Heterobifunctional compounds as degraders of HPK1” (ICAHN SCHOOL OF MEDICINE AT MOUNT SINAI, priority 2019, dated 2025):

Columns and labels:
HPK1 [1] = target: T1, HPK1 (Homo sapiens, UniProt Q92918); experiment: Western blot analysis of endogenous HPK1 level in Jurkat T cells; type: cell-based
T1 construct: endogenous in cells; host or cells: Jurkat T cells

primary GFP+ Tregs = experiment: IL-2 production by primary GFP+ Tregs in response to TCR engagement; type: cell-based; conditions: stimulation by TCR engagement (FIG. 7)
HPK1 [2] = target: T2, HPK1 (Mus musculus, UniProt P70218); experiment: HPK1 degradation in primary mouse T cells; type: cell-based; conditions: 300 nM
T2 construct: HPK1 degraders could effectively degrade endogenous HPK1 in murine T cells; endogenous in cells; host or cells: primary mouse T cells
T2 sequence (P70218 1-827): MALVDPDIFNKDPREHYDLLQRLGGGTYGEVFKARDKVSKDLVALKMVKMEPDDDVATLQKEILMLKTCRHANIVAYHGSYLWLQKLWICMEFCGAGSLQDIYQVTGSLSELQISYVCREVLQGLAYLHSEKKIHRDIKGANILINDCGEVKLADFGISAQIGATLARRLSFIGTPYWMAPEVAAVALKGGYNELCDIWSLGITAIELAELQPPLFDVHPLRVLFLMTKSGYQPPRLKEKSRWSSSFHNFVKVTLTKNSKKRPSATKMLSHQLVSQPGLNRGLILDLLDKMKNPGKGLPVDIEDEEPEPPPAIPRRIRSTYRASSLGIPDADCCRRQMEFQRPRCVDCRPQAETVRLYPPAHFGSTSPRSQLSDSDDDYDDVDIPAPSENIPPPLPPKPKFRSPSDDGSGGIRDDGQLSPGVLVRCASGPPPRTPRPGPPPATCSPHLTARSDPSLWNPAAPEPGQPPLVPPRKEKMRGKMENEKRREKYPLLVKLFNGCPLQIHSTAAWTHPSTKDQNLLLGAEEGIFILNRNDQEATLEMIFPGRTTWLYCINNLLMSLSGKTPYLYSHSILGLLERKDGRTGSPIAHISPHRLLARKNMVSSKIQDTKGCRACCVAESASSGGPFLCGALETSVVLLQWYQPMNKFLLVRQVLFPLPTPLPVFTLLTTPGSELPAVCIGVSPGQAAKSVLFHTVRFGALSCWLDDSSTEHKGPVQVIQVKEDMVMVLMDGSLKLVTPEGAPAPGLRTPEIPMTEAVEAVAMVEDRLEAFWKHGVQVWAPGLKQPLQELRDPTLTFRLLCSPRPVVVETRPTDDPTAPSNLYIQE
Protocol: (§1) EXAMPLE 348. Several compounds according to the present invention employing the indolin-2-one HPK1 binding base, (which henceforth shall be referred to as the HC58 series, the HC65 series and the HC75 series) were assessed on their abilities to degrade HPK1 and produce an elevated IL-2 response profile upon stimulation by anti-CD3- and anti-CD28-mAb-mediated (CD3XCD28) stimulation (FIGS. 1-4). The elevated IL-2 response profile induced by TCR engagement after exposure to HC58 series of HPK1 degraders is shown in FIG. 1. […] A select sub-set of the lead HPK1 degraders from the HC58 series were further characterized to determine whether they could degrade primary mouse T cells.
EXAMPLE 353. HPK1 is expressed in all hematopoietic cells examined to date, including T cells, B cells, dendritic cells and neutrophils. Because the breath of therapeutic approaches might involve the use of Chimeric Antigen Receptor (CAR) T cells, dendritic cells, TCR transgenic T cells and Tumor Infiltrating Lymphocytes (TILs), selected HPK1 degraders were evaluated to determine whether they could degrade HPK1 effectively in some of these cell types. […] Potent degradation of HPK1 by HPK1 degraders was also observed in the human DC1 dendritic cells.

primary murine T cells [3] = experiment: IL-2 production by primary murine T cells; type: cell-based, mouse
Protocol: as §1

primary murine T cells [4] = experiment: Proliferation of primary murine T cells; type: cell-based, mouse
Protocol: as §1

CD4+eGFP+ Tregs = experiment: IL-2 production by regulatory T cells (Tregs) on CD3XCD28 stimulation (IL-2 ELISA); type: cell-based, mouse; conditions: compared with HPK1-/- Tregs
Description: EXAMPLE 350. It was observed that HPK1^−/− regulatory T cells (Treg), unlike their wild type counterparts, could readily produce IL-2 in response to CD3XCD28 stimulation. Taking advantage of the FoxP3-driven eGFP reporter mice that express eGFP only in the FoxP3^+ regulatory T cells (Tregs), bonafide Tregs were purified from spleens and lymph nodes by FACS-assisted sorting of CD4^+eGFP^+ Tregs and used as the source of ex vivo functional studies. The ability of the wild type Treg, the HPK1^−/− Tregs and the HC58-78-treated wild type Tregs to produce IL-2 in response to CD3XCD28 stimulation was compared. […] Wild type regulatory T cells could not produce the IL-2 in response to the same stimulation due to the transcriptional repression of the IL-2 locus by the FoxP3 transcription factor (FIG. 7, the white histogram bar).

human PBMCs = experiment: Intracellular IFNγ and TNFα staining of human PBMC (FACS); type: cell-based; conditions: in combination with blinatumomab
Description: EXAMPLE 355. One of the mechanisms employed by PBMC to kill their target cells is by releasing IFNγ and TNFα production. These inflammatory cytokines are known have potent cytolytic effects on cancer cells. […] Mediated PBMC killing of the Raji cells is most evident at PBMC:Raji ratio of 5:1 (FIG. 13).
To determine the number of CD19^+ Raji cells killed by human PBMC that were activated by the Blinatumomab-mediated activation, we used CountBright cell counting beads to estimate the number of cells remained after 72 hours of co-culturing of PBMC and Raji. As for the intracellular staining of the TNFα and the IFNγ, the standard para-formaldehyde-based “fix and perm” procedure was used in order to quantitate the amount of intracellular cytokine trapped inside the cells by brefeldin A. FACS analysis of stained cells is performed by BD's LSR II FACS.

T1 sequence (Q92918 whole entry): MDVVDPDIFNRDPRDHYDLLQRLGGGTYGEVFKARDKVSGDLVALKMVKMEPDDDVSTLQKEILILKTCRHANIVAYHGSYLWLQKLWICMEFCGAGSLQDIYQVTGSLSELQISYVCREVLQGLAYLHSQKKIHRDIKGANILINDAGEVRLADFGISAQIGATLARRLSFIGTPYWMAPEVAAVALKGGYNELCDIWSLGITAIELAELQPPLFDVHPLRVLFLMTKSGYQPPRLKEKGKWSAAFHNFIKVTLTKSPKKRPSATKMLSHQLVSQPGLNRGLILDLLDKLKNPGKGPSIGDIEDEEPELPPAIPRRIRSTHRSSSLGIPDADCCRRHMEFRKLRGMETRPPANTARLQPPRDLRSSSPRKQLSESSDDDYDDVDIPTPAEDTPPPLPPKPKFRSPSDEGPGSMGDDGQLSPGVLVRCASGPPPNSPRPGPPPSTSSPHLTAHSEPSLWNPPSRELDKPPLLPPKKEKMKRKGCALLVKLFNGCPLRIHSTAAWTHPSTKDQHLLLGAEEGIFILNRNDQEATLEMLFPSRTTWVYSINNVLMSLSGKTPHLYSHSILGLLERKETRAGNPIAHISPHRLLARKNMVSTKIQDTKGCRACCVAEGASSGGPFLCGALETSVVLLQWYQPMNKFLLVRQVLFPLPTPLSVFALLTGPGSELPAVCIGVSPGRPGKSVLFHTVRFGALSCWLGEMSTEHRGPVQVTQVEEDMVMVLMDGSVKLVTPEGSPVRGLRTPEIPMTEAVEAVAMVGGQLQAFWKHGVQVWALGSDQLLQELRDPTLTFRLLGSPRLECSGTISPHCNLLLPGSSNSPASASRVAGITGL

Cc1[nH]c(/C=C2\C(=O)Nc3ccc(F)cc32)c(C)c1C(=O)NCCCN1CCN(CC(=O)NCCCCCCCCNc2cccc3c2C(=O)N(C2CCC(=O)NC2=O)C3=O)CC1 (centres unmarked) [HC58-78, (Z)—N-(3-(4-(2-((8-((2-(2,6-dioxopiperidin-3-yl)-1,3-dioxoisoindolin-4-yl)amino)octyl)amino)-2-oxoethyl)piperazin-1-yl)propyl)-5-((5-fluoro-2-oxoindolin-3-ylidene)methyl)-2,4-dimethyl-1H-pyrrole-3-carboxamide]
endogenous level of HPK1 (HPK1 [1]; Jurkat T cells, multiple day post exposure (FIG. 3)): could reduce the endogenous level of HPK1 | reducing HPK1 protein levels (HPK1 [1]; characterization of exemplary degraders (FIGS. 1-14)): especially effective in reducing HPK1 protein levels | IL-2 production (primary GFP+ Tregs): elevated IL-2 production | degradation of HPK1 protein in primary T cells compared with Jurkat T cells (HPK1 [2]): could degrade more HPK1 protein in primary T cells than in Jurkat T cells | IL-2 production compared with the DMSO-treated counterpart (primary murine T cells [3]): produced more IL-2 than the DMSO-treated counterpart | proliferation compared with the DMSO-treated counterpart (primary murine T cells [4]): proliferate much more quickly than the DMSO-treated counterpart | IL-2 production by treated wild type Tregs (CD4+eGFP+ Tregs): produced IL-2 at level comparable to that produced by HPK1^−/− Tregs | percentage of human PBMCs that express high level of IFNγ and TNFα (human PBMCs): significantly increased
